What is called IC50 is the concentration at which inhibition is half-maximal. One may read the bioavailability as the share of a dose that reaches the circulation, judged against a reference dose that is usually intravenous.

Data on ten molecules can be found in patent publication US10111854B2, “Synthesis and use of amine-containing flavonoids as potent anti-leishmanial agents” (The Hong Kong Polytechnic University, priority 2014, dated 2018).

For data set [1], the system named is L. amazonensis LV78 promastigotes. Put plainly: Anti-promastigote activity (MTS assay), L. amazonensis LV78. Type of data set: cell-based. Particulars: 72 hours. In short, it runs like this:
(§1)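 Promastigotes (1×10^5 per well) in Schneider's medium pH 6.9 with 10% FBS, exposed to serial compound concentrations for 72 h at 27 °C. Viability by MTS/PMS reduction over 4 h, OD 490 nm; IC50 derived.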
Background: Formazan colour is commonly taken as a measure of viable cells.

The test system of data set [2] is L. major FV1 promastigotes. In words: Anti-promastigote activity (MTS assay), L. major FV1. To be noted: 72 hours. In kind it is cell-based. Summed up:
as §1

Data set [3] has as its system L. donovani Ld39 promastigotes. In words: Anti-promastigote activity (MTS assay), L. donovani Ld39. In kind it is cell-based. Particulars: 72 hours. In short, it runs like this:
as §1

A further data set deals with mouse fibroblast (L929). Put plainly: Cytotoxicity, L929 fibroblasts. Particulars: mouse fibroblast L929. Type of data set: cell-based. The protocol: (§2) IC50 values of known antileishmanials and the amine-containing flavonoid monomers of the present invention to promastigotes (L. amazonensis LV78, L major FV1, L. donovani HU3, L. donovani 39), macrophages (Raw 264.7 and PEM) and mouse fibroblast (L929) were determined. The anti-promastigotes activities and cytotoxicity of the amine-containing flavonoid monomers of the invention are shown in Table 1.

In data set [4] the test system is peritoneal elicited macrophages (PEM). Put plainly: Cytotoxicity, peritoneal elicited macrophages (PEM). In kind it is cell-based, mouse.
In data set [5] the test system is L. amazonensis LV78 amastigotes. In words: Anti-amastigote activity in infected PEM, L. amazonensis LV78. Type of data set: cell-based. To be noted: for IC50: infected PEM, 3 days, Giemsa. Summed up: (§3)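 Macrophages elicited from mouse peritoneum were allowed to adhere overnight, then infected with late-log promastigotes at a 20:1 ratio at 37 °C. After removal of non-internalized parasites, cells were incubated with compound for 3 days. Amastigote burden was scored microscopically after Giemsa staining.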

The nature of data set [6]: Pharmacokinetics of FM05 hydrochloride salt, oral. Particulars: mouse, in vivo, po, 42 mg/kg. In kind it is in vivo, Balb/c mice. On the procedure:
Based on the result of the preliminary in vivo study, FM05 hydrochloride salt was selected for further investigation. FM05 hydrochloride salt was dissolved in saline at 4 mg/ml and administered to male balb/c at 42 mg/kg. Blood plasma samples were collected at various time points for pharmacokinetics analysis (n=2 to 3 for each time point).

The subject of data set [7] is L. donovani HU3 promastigotes. In words: Anti-promastigote activity (MTS assay), L. donovani HU3. In kind it is cell-based. Particulars: 72 hours. In short, it runs like this:
as §1

Data set [8] can be described thus: Cytotoxicity, L929 fibroblasts. Type of data set: cell-based, mouse. To be noted: mouse. On the procedure: as §2
Data set [9] is described as follows: Cytotoxicity, peritoneal elicited macrophages (PEM). Type of data set: cell-based, mouse. Particulars: mouse, Cytotoxicity IC50, PEM.
In data set [10] the test system is L. donovani HU3 amastigotes. Put plainly: Anti-amastigote activity in infected PEM, L. donovani HU3. In kind it is cell-based. To be noted: infected PEM, 3 days, Giemsa, SSG-sensitive. Summed up: as §3
A short description of data set [11]: Pharmacokinetics study of FM09, FM09h and FM05b, iv and oral. In kind it is in vivo, Balb/c mice. Particulars: 50 mg/kg oral; for bioavailability: Balb/c, mouse, plasma, 10 mg/kg iv, dose-adjusted AUC oral over iv, read-out: Bioavailability (F). The protocol:
Animals were sacrificed at the indicated time point and plasma level of the corresponding flavonoids were determined using LC-MSMS. IC50 of corresponding flavonoids are indicated. Bioavailability (F) was calculated by dividing the dose-adjusted area under curve (AUC) of that of orally-fed over intravenously administered animals.

Data set [12] deals with L. amazonensis and L. donovani HU3 promastigotes and amastigotes. In words: Anti-promastigote and anti-amastigote activity of FM09, FM01 and FM05 derivatives. In kind it is cell-based, Leishmania. To be noted: stage and strain not specified; read-out: IC50, anti-promastigote and anti-amastigote activity (Table 3C). The protocol: Derivatives of FM09, FM01 and FM05 were synthesized and their anti-promastigote and anti-amastigote activity were determined (Table 3C). Many amine-containing flavonoid monomers have IC50 less than 5 μM, including FM09a, FM09b, FM09c, FM09e, FM09h, FM09i, FM09k, FM09l, FM01b and FM05b.

Data set [13] deals with L. braziliensis UA847 amastigotes. Put plainly: Anti-amastigote activity in infected PEM, L. braziliensis UA847. Type of data set: cell-based. Particulars: Leishmania braziliensis, 72 h, 3 days, Giemsa, read-out: Anti-amastigote activity IC50, L. baziliensis UA847. The protocol:
(§4) Mouse peritoneal elicited macrophages (PEM) were obtained as previously described (2). A round cover slip (12 mm in diameter) was placed into each well of 24-well culture plate. Mouse PEM were resuspended in supplemented DMEM media containing 10% heat inactivated FBS (v/v), 100 U/mL penicillin and 100 μg/mL streptomycin and seeded into each well at a cell density of 1×10^5 cells per 500 μL. Macrophages were allowed to attach overnight. Non-adherent cells were removed by gentle washing with un-supplemented DMEM media twice. Adherent macrophages were infected with late-log promastigotes at a parasite-to-macrophage ratio of 20:1 overnight at 37° C. with 5% CO2. Non-internalized promastigotes were removed by washing twice with un-supplemented DMEM media. Infected macrophages were further incubated in 500 μL of supplemented DMEM media in the presence or absence of FM for 72 hours at 37° C. After incubation, cover slips were stained with Giemsa and the percentage of macrophages infected and number of amastigotes per 100 macrophages was enumerated.
(§5) PEM cells were infected with late-log promastigotes (L. amazonensis LV78, L. braziliensis UA847, L. donovani HU3, L. donovani 39) for 24 hr at 37° C. Infected macrophages were then treated with various antileishmanials and incubated for 3 days at 37° C. After 3 days, the cover slips were stained with Giemsa. The number of amastigotes per 100 macrophages were determined and used to calculate IC50 values.

For data set [14], the system named is L. donovani Ld39 amastigotes (SSG-resistant). In words: Anti-amastigote activity in infected PEM, L. donovani Ld39. In kind it is cell-based. Particulars: Leishmania donovani, 72 h; infected PEM, 3 days, Giemsa; SSG-resistant. In short, it runs like this:
as §3

The test system of data set [15] is amastigotes (L. amazonensis LV78, L. braziliensis UA847, L. donovani HU3, L. donovani 39). In words: Anti-amastigote activity, strain not given. Particulars: strain not specified; visceral and cutaneous Leishmania; read-out: IC50 against amastigotes. In kind it is cell-based. The protocol:
as §4, §5

Where a name gives a salt, the structure may show the parent alone.

Consider `O=c1cc(-c2ccc(OCCN3CCN(Cc4ccncc4)CC3)cc2)oc2ccccc12` [FM01.HCl], for which the IC50 was 12.6 ± 0.9 µM in [1]; 6.7 ± 1.9 µM in [2]; 1.3 ± 0.3 µM in [3]; 33.7 µM with mouse fibroblast (L929); 55.9 µM in data set [4]; greater than 9 µM in data set [5].

Molecule `Cl.O=c1cc(-c2ccc(OCCC3CCN(Cc4ccncc4)CC3)cc2)oc2ccccc12` [FM05.HCl] came in with a half-maximal inhibitory concentration (IC50) in data set [1] of 6 ± 0.5 µM. The same molecule came in with a half-maximal inhibitory concentration (IC50) in data set [2] of 3.5 ± 0.9 µM. Moreover, in [3], the IC50 worked out at 1.2 ± 0.5 µM. In data set [4], this molecule showed a 50% inhibitory concentration (IC50) of 23.8 µM. 6.9 ± 0.9 µM corresponded to half-maximal inhibition in [5] (listed as FM05.HCI) (IC50). Also, in [6], the “AUC(0-7 hr)” value amounted to 83089 ng·min/mL; the “Cmax (obs)” value is 312.8 ng/mL; the “Half-life (Distribution and absorption)” value is 0.417 h; the “Half-life (Elimination)” value was 3.37 h. In addition, in data set [6], the “MRT (area)” value was 5.35 h and the “Tmax (obs)” value was found to be 2 h.

As for `COc1ccnc(CN2CCC(CCOc3ccc(-c4cc(=O)c5ccccc5o4)cc3)CC2)c1OC` [FM05b, 2-(4-(2-(1-((3,4-dimethoxypyridin-2-yl)methyl)piperidin-4-yl)ethoxy)phenyl)-4H-chromen-4-one], the half-maximal inhibitory concentration (IC50) in data set [1] (Leishmania amazonensis) came to 0.57 ± 0.17 µM; in [7] (Leishmania donovani), 0.89 ± 0.33 µM; in data set [8], 10.6 ± 1.13 µM; in data set [9] it was 5.1 µM; in data set [5] (Leishmania amazonensis, 72 h), 0.3 ± 0.06 µM; in [10] (Leishmania donovani, 72 h), 0.7 ± 0.37 µM. Besides, in data set [12], the IC50 is less than 5 µM. Besides, the “Time post oral feeding at which plasma level remains higher than respective IC50” value in data set [11] was determined as 420 min. Further, in data set [11], the bioavailability was 36%.

In the case of `O=c1cc(-c2ccc(OCCOCCN(Cc3ccccn3)Cc3ccccn3)cc2)oc2ccccc12` [FM09.HCl], the IC50 is 0.7 µM in data set [1]; 1.2 ± 0.3 µM in data set [2]; 0.2 ± 0.1 µM in [7]; 0.5 ± 0.1 µM in [3]; 20.2 ± 8.4 µM with mouse fibroblast (L929); 0.4 µM in data set [5]. For the same molecule, half-maximal inhibition in [10] (IC50) was put at 1.8 µM.

Take `COc1ccnc(CN(CCOCCOc2ccc(-c3cc(=O)c4ccccc4o3)cc2)Cc2nccc(OC)c2OC)c1OC` [FM09aHCl]: the IC50 in data set [1] was 0.77 ± 0.19 µM; in data set [7], 0.99 ± 0.19 µM; with mouse fibroblast (L929) it was 12.9 ± 2.4 µM; in [5], 0.35 ± 0.01 µM; in data set [10] it was 0.5 ± 0.02 µM.

In the case of `O=c1cc(-c2ccc(OCCOCCN(Cc3cccnc3)Cc3cccnc3)cc2)oc2ccccc12` [FM09b.HCl], the IC50 was 8.08 ± 1.99 µM in data set [1]; 12.9 ± 7.32 µM in data set [7]; 75.1 ± 13.6 µM in the data set on mouse fibroblast (L929); greater than 10 µM in data set [5]; greater than 10 µM in [10].

In the case of `O=c1cc(-c2ccc(OCCOCCN(Cc3ncccc3F)Cc3ncccc3F)cc2)oc2ccccc12` [FM09c.HCl], the concentration for half-maximal inhibition (IC50) in data set [1] came out at 2.66 ± 0.3 µM; in data set [7], 4.97 ± 1.04 µM; with mouse fibroblast (L929) it was 39 ± 6.1 µM; in data set [5], 1.45 ± 0.31 µM; in [10], 2.9 ± 1.49 µM.

As to `Cc1c(OCC(F)(F)F)ccnc1CN(CCOCCOc1ccc(-c2cc(=O)c3ccccc3o2)cc1)Cc1nccc(OCC(F)(F)F)c1C` [FM09h, 2-(4-(2-(2-(bis((3-methyl-4-(2,2,2-trifluoroethoxy)pyridin-2-yl)methyl)amino)ethoxy)ethoxy)phenyl)-4H-chromen-4-one], the 50% inhibitory concentration (IC50) in data set [1] (Leishmania amazonensis) stood at 0.47 ± 0.07 µM; in [7] (Leishmania donovani), 1.09 ± 0.09 µM; in data set [8] it was 3.62 ± 0.51 µM; in [9] it was 6.4 µM; in data set [5] (Leishmania amazonensis, 72 h) it was 0.29 ± 0.05 µM; in data set [10] (Leishmania donovani, 72 h), 0.3 ± 0.04 µM. Also, in [12], the half-maximal inhibitory concentration (IC50) is less than 5 µM. In addition, in data set [11], the “Time post oral feeding at which plasma level remains higher than respective IC50” value turned out to be 180 min. Moreover, the bioavailability in data set [11] stood at 5%.

In the case of `O=c1cc(-c2ccc(OCCOCCNCc3ccccn3)cc2)oc2ccccc12` [FM09m.HCl], the IC50 is 14.3 ± 3.3 µM in data set [1]; 18.2 ± 2.13 µM in data set [7]; 28.3 µM in data set [4]; 7.86 ± 2.15 µM in [5]; greater than 10 µM in data set [10].

For the molecule `O=c1cc(-c2ccc(OCCOCCN(Cc3ccccc3)Cc3ccccc3)cc2)oc2ccccc12` [FM19, 2-(4-(2-(2-(dibenzylamino)ethoxy)ethoxy)phenyl)-4H-chromen-4-one], the IC50 is 17.5 ± 3.2 µM in [1] (Leishmania amazonensis); 21.6 ± 4.2 µM in [2] (Leishmania major); 9.8 ± 2.5 µM in [7] (Leishmania donovani); greater than 100 µM in [3] (Leishmania donovani); 55.1 ± 7.2 µM in data set [8]; 1.3 ± 0.6 µM in data set [5] (Leishmania amazonensis, 72 h). The 50% inhibitory concentration (IC50) in data set [13] is less than 0.37 µM; in data set [10] (Leishmania donovani, 72 h), greater than 10 µM; in data set [14] it was greater than 10 µM; in data set [15], less than 5 µM. In data set [5] (IC50 RAW264.7 over IC50 L. amazonensis LV78 amastigotes), the “Selective index (a)/(b)” value is listed as greater than 76.9.
